Data: PubChem BioAssay (NCI)
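Briefly, cells in 96-well plates were exposed to five compound concentrations for 48 h, and endpoints were estimated by linear interpolation. GI50 marks 50% less growth. At the TGI there is no net growth.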

Experiments:
Experiment in all cases: growth of human tumour cells (NCI), 48 h
[1] = tested on: OVCAR-8 ovarian
[2] = tested on: HL-60(TB) leukemia
[3] = tested on: MDA-MB-435
[4] = tested on: UO-31 renal
[5] = tested on: MALME-3M melanoma
[6] = tested on: SNB-19 CNS
[7] = tested on: HOP-92 NSCLC
[8] = tested on: TK-10 renal
[9] = tested on: DU-145 prostate
[10] = tested on: SF-268 CNS
[11] = tested on: BT-549 breast
[12] = tested on: RPMI-8226 leukemia
[13] = tested on: SK-MEL-28 melanoma
[14] = tested on: U251 CNS
[15] = tested on: SF-295 CNS
[16] = tested on: OVCAR-5 ovarian
[17] = tested on: UACC-257 melanoma
[18] = tested on: 786-0 renal
[19] = tested on: HOP-62 NSCLC
[20] = tested on: MOLT-4 leukemia
[21] = tested on: NCI-H460 lung
[22] = tested on: LOX IMVI melanoma
[23] = tested on: UACC-62 melanoma
[24] = tested on: NCI/ADR-RES ovarian
[25] = tested on: SK-OV-3 ovarian
[26] = tested on: MCF7 breast
[27] = tested on: RXF 393 renal
[28] = tested on: NCI-H522 lung
[29] = tested on: SK-MEL-2 melanoma
[30] = tested on: OVCAR-4 ovarian
[31] = tested on: OVCAR-3 ovarian
[32] = tested on: T-47D breast
[33] = tested on: KM12 colon
[34] = tested on: SF-539 CNS
[35] = tested on: SNB-75 CNS
[36] = tested on: A498 renal
[37] = tested on: CAKI-1 renal
[38] = tested on: HCT-15 colon
[39] = tested on: M14 melanoma
[40] = tested on: HCC-2998 colon
[41] = tested on: HCT-116 colon
[42] = tested on: IGROV1 ovarian
[43] = tested on: SN12C renal
[44] = tested on: NCI-H23 lung
[45] = tested on: MDA-MB-231 breast
[46] = tested on: SW-620 colon
[47] = tested on: HT29 colon
[48] = tested on: ACHN renal
[49] = tested on: COLO 205 colon
[50] = tested on: NCI-H226 lung
[51] = tested on: A549 NSCLC
[52] = tested on: HS 578T breast
[53] = tested on: CCRF-CEM leukemia
[54] = tested on: K-562 leukemia
[55] = tested on: PC-3 prostate
[56] = tested on: SK-MEL-5 melanoma

For `O=C1/C(=C\c2ccc(Cl)cc2)CN(C(=S)Nc2ccccc2)C/C1=C\c1ccc(Cl)cc1`, the GI50 [1] was 527 nM, the TGI [1] was > 47900 nM and the GI50 [2] was 1620 nM. It also gave a TGI [2] of 7850 nM, a GI50 [3] of 1090 nM and a TGI [3] of 3010 nM. For the same compound, the GI50 [4] was 1210 nM, the TGI [4] was 2560 nM and the GI50 [5] was 2220 nM. The TGI [5] was 4860 nM, the GI50 [6] was 661 nM and the TGI [6] was 1950 nM. It also gave a GI50 [7] of 1850 nM, a TGI [7] of 4830 nM and a GI50 [8] of 1960 nM. For the same compound, the TGI [8] was 4480 nM, the GI50 [9] was 1110 nM and the TGI [9] was 3480 nM. It also gave a GI50 [10] of 754 nM, a TGI [10] of 2260 nM and a GI50 [11] of 600 nM. For the same compound, the TGI [11] was 1770 nM, the GI50 [12] was 136 nM and the TGI [12] was 646 nM. It also gave a GI50 [13] of 1790 nM, a TGI [13] of 3390 nM and a GI50 [14] of 212 nM. The TGI [14] was 484 nM, the GI50 [15] was 389 nM and the TGI [15] was 1730 nM. For the same compound, the GI50 [16] was 1470 nM, the TGI [16] was 3490 nM and the GI50 [17] was 1830 nM. For the same compound, the TGI [17] was 3780 nM, the GI50 [18] was 351 nM and the TGI [18] was 1230 nM. It also gave a GI50 [19] of 269 nM, a TGI [19] of 696 nM and a GI50 [20] of 1740 nM. For the same compound, the TGI [20] was 13700 nM, the GI50 [21] was 471 nM and the TGI [21] was 2150 nM. It also gave a GI50 [22] of 203 nM, a TGI [22] of 432 nM and a GI50 [23] of 1200 nM. For the same compound, the TGI [23] was 2920 nM, the GI50 [24] was 2540 nM and the TGI [24] was 18400 nM. The GI50 [25] was 2030 nM, the TGI [25] was 4860 nM and the GI50 [26] was 292 nM. The TGI [26] was 1150 nM, the GI50 [27] was 397 nM and the TGI [27] was 1130 nM. For the same compound, the GI50 [28] was 1820 nM, the TGI [28] was 3840 nM and the GI50 [29] was 2570 nM. For the same compound, the TGI [29] was 5800 nM, the GI50 [30] was 343 nM and the TGI [30] was 2770 nM. It also gave a GI50 [31] of 437 nM, a TGI [31] of 1490 nM and a GI50 [32] of 1100 nM. The TGI [32] was 3610 nM, the GI50 [33] was 261 nM and the TGI [33] was 645 nM. For the same compound, the GI50 [34] was 427 nM, the TGI [34] was 1540 nM and the GI50 [35] was 1250 nM. It also gave a TGI [35] of 3820 nM, a GI50 [36] of 1660 nM and a TGI [36] of 3150 nM. For the same compound, the GI50 [37] was 2560 nM, the TGI [37] was > 29200 nM and the GI50 [38] was 283 nM. For the same compound, the TGI [38] was 3270 nM, the GI50 [39] was 1700 nM and the TGI [39] was 4200 nM. The GI50 [40] was 755 nM, the TGI [40] was 1940 nM and the GI50 [41] was 213 nM. It also gave a TGI [41] of 438 nM, a GI50 [42] of 953 nM and a TGI [42] of 2870 nM. It also gave a GI50 [43] of 544 nM, a TGI [43] of 1890 nM and a GI50 [44] of 1300 nM. The TGI [44] was 3920 nM, the GI50 [45] was 735 nM and the TGI [45] was 5440 nM. For the same compound, the GI50 [46] was 298 nM, the TGI [46] was 1040 nM and the GI50 [47] was 277 nM. It also gave a TGI [47] of 719 nM, a GI50 [48] of 1220 nM and a TGI [48] of 2650 nM. For the same compound, the GI50 [49] was 507 nM, the TGI [49] was 1840 nM and the GI50 [50] was 1640 nM. The TGI [50] was 4580 nM, the GI50 [51] was 415 nM and the TGI [51] was 10300 nM. For the same compound, the GI50 [52] was 3000 nM, the TGI [52] was 23300 nM and the GI50 [53] was 453 nM. For the same compound, the TGI [53] was 13200 nM, the GI50 [54] was 356 nM and the TGI [54] was 7670 nM. The GI50 [55] was 371 nM, the TGI [55] was 2090 nM and the GI50 [56] was 1660 nM. For the same compound, the TGI [56] was 3120 nM.
